Entries after “also recorded” stand apart in the source; their conditions may differ.

Assay [1] concerns P10 ADP-ribosyl cyclase from Jurkat T lymphocytes. The assay is described as follows: Inhibition of P10 (heavy membrane) ADP-ribosyl cyclase, cyclase activity. The note with it: for Inhibition of intracellular membrane bound P10 ADP-ribosyl cyclase (in words): heavy (P10) membranes from Jurkat T cells, FIG. 3; for Enzyme Activity (% of control), Cyclase activity: P10 fraction, 100 μM 1,N6-etheno-NAD substrate. Type of assay: biochemical, human. The procedure:
(§1) Heavy membrane (P10 membranes) were prepared from Jurkat T cells (10^9 cells) as described (Guse et al., Nature 1999). P10-ADP-ribosyl cyclase was then incubated with 100 μM substrate (1,N^6-etheno-NAD) in the presence or absence of various concentrations of 8-Br-NHD. The formation of 1,N^6-etheno-cADPR and 1,N^6-etheno-ADPR was continuously monitored by fluorimetry (exc. 300 nm, em. 410 nm). Finally, the precise amount of products 1,N^6-etheno-cADPR and 1,N^6-etheno-ADPR was quantified by HPLC (da Silva et al., 1998a) using a fluorescence detector. Data are presented as mean±SD (n≧3).

Assay [2] deals with NAD glycohydrolase activity of P10 membranes from Jurkat T lymphocytes. The assay is described as follows: Inhibition of NAD glycohydrolase (NADase) activity in the P10 fraction. Type of assay: biochemical, human. The note with it: for Inhibition of NADase activity in the P10 fraction (in words): FIG. 3; for Enzyme Activity (% of control), NAD glycohydrolase activity: P10 fraction. Here is the method: as §1

Assay [3] concerns soluble ADP-ribosyl cyclase from Jurkat T lymphocytes. In words: Inhibition of partially purified soluble ADP-ribosyl cyclase, cyclase activity. Type of assay: biochemical, human. Conditions: soluble fraction, 100 μM 1,N6-etheno-NAD substrate. Here is the method:
as §1, with “FIG. 1-a, b—Inhibition of intracellular, soluble ADP-ribosyl cyclase by 8-Br-NHD. Soluble protein (S100 protein) was” for “Heavy membrane (P10 membranes) were”, “1999) and soluble ADP-ribosyl cyclase was partially purified by hydroxyapatite chromatography. Partially purified ADP-ribosyl” for “1999). P10-ADP-ribosyl”, “mean ±SD” for “mean±SD”
(§2) Soluble protein (S100 protein) was prepared from Jurkat T cells (10^9 cells) as described (Guse et al., Nature 1999) and soluble ADP-ribosyl cyclase was partially purified by hydroxyapatite chromatography. […] The formation of 1,N^6-etheno-cADPR and 1,N^6-etheno-ADPR was continuously monitored by fluorimetry (exc. 300 nm, em. 410 nm). Finally, the precise amount of products 1,N^6-etheno-cADPR and 1,N^6-etheno-ADPR was quantified by HPLC (da Silva et al., 1998a) using a fluorescence detector. Data are presented as mean±SD (n≧3).

The subject of assay [4] is NAD glycohydrolase activity of soluble protein fraction from Jurkat T lymphocytes. In words: Inhibition of NAD glycohydrolase (NADase) activity in the soluble fraction. Type of assay: biochemical, human. Here is the method: FIG. 1-a, b—Inhibition of intracellular, soluble ADP-ribosyl cyclase by 8-Br-NHD. Soluble protein (S100 protein) was prepared from Jurkat T cells (10^9 cells) as described (Guse et al., Nature 1999) and soluble ADP-ribosyl cyclase was partially purified by hydroxyapatite chromatography. Partially purified ADP-ribosyl cyclase was then incubated with 100 μM substrate (1,N^6-etheno-NAD) in the presence or absence of various concentrations of 8-Br-NHD. The formation of 1,N^6-etheno-cADPR and 1,N^6-etheno-ADPR was continuously monitored by fluorimetry (exc. 300 nm, em. 410 nm). Finally, the precise amount of products 1,N^6-etheno-cADPR and 1,N^6-etheno-ADPR was quantified by HPLC (da Silva et al., 1998a) using a fluorescence detector. Data are presented as mean ±SD (n≧3).
as §2

Assay [5] deals with T1, ecto-ADP-ribosyl cyclase (CD38) (Homo sapiens, UniProt P28907).
T1 construct: Intact Jurkat T cells expressing ecto-ADP-ribosyl cyclase; endogenous in cells; host or cells: intact Jurkat T cells
T1 sequence (P28907 1-300): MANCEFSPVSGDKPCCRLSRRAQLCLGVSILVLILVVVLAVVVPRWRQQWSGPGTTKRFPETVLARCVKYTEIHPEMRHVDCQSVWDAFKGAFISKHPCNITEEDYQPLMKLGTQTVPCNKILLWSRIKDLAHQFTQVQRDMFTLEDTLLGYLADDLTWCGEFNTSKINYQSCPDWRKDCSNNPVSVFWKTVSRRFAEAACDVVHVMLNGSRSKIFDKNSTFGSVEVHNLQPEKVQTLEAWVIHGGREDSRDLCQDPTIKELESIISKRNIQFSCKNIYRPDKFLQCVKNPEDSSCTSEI
In words: Inhibition of cell surface ADP-ribosyl cyclase on intact Jurkat T cells. Type of assay: cell-based. Conditions: FIG. 4. The procedure:
(§3) Intact Jurkat T cells expressing ecto-ADP-ribosyl cyclase (da Silva et al., 1998b) were incubated with 100 μM substrate (1,N^6-etheno-NAD) in the presence or absence of various concentrations of 8-Br-NHD. It is likely that this enzyme is CD38. The formation of 1,N^6-etheno-cADPR and 1,N^6-etheno-ADPR was continuously monitored by fluorimetry (exc. 300 nm, em. 410 nm). Finally, the precise amount of products 1,N^6-etheno-cADPR and 1,N^6-etheno-ADPR was quantified by HPLC (da Silva et al., 1998a) using a fluorescence detector. Data are presented as mean±SD (n≧3).

Assay [6] addresses T2, NADase activity of intact Jurkat T cells expressing ecto-ADP-ribosyl cyclase (Homo sapiens, UniProt P28907).
T2 construct: Intact Jurkat T cells expressing ecto-ADP-ribosyl cyclase; endogenous in cells; host or cells: intact Jurkat T cells
T2 sequence (P28907 1-300): T1 sequence (P28907 1-300)
In words: Inhibition of NADase activity on intact Jurkat T cells. Type of assay: cell-based. Conditions: FIG. 4. Here is the method: as §3

Assay [7] concerns TCR/CD3-mediated Ca2+-signalling of the human Jurkat T cell line. In words: TCR/CD3-mediated Ca2+ signalling, Fura2 ratiometric imaging. The note with it: preincubation 250 or 500 μM for 30 min, anti-CD3 OKT3 stimulation, 25 min after stimulation; FIG. 5. Type of assay: cell-based. The procedure: Intact Jurkat T cells were loaded with Fura2-AM, and Ca^2+ signalling was measured by digital ratiometric Ca^2+ imaging (Guse et al., Nature 1999). For technical reasons the excitation wavelengths were set to 340 and 365 nm, whereas emission was filtered at 520 nm. The cells were preincubated with 250 or 500 μM 8-Br-NHD for 30 min. Then the cells were stimulated by anti-CD3 antibody OKT3 ([…]) in solution, and the cells were transferred to the examination chamber on the digital imaging station. The intracellular Ca^+ concentration was then monitored for about 25 min with a sampling rate of 3 or 6/min. Data are presented as mean intracellular Ca^2+ concentration ±SEM 25 min after stimulation. Numbers in brackets indicate the number of cells investigated in 3 independent experiments.

Another assay has as its system human Jurkat T cells. In words: Proliferation of Jurkat T cells, trypan blue cell counting. Conditions: present for 4 or 5 days; FIG. 6. Type of assay: cell-based. The procedure: FIG. 6—Inhibition of proliferation of the human Jurkat T cell line by 8-Br-NHD. Proliferation of intact Jurkat T cells was measured as described earlier (Guse et al., Cell Calcium 1997). Various concentrations of 8-Br-NHD were added to the cultures in 96 well plates, and were present for 4 or 5 days. The number of living cells was determined every day by cell counting of trypan blue stained cells. Data are mean±SD from 2 independent experiments.

The subject of another assay is NADase. Conditions: positive controls; cited from earlier work.

Consider `NC(=O)c1ccc[n+](C2OC(COP(=O)([O-])OP(=O)(O)OCC3OC(n4c(Br)nc5c(=O)[nH]cnc54)C(O)C3O)C(O)C2O)c1` (stereo not drawn) [8-Br-NHD, nicotinamide 8-bromohypoxanthine dinucleotide], for which the “Inhibition of intracellular membrane bound P10 ADP-ribosyl cyclase (in words)” value in assay [1] is “dose-dependently inhibited; also recorded: inhibit”. Also, the “Enzyme Activity (% of control), Cyclase activity” value in assay [1] (inhibitor 10 μM) is on record as 59.2 % of control; in assay [1] (inhibitor 100 μM) it was 14.3 % of control; in assay [3] (inhibitor 10 μM), 57.7 % of control; in assay [3] (inhibitor 100 μM), 13.0 % of control. The “Inhibition of NADase activity in the P10 fraction (in words)” value in assay [2] was “inhibited with a similar pharmacology; also recorded: inhibit”. Further, the “Enzyme Activity (% of control), NAD glycohydrolase activity” value in [2] (inhibitor 10 μM) is 60.8 % of control; in [2] (inhibitor 100 μM) it was 15.6 % of control; in assay [4] (inhibitor 10 μM) it was 55.5 % of control; in assay [4] (inhibitor 100 μM), 3.3 % of control. Also, the “Inhibition of ecto-ADP-ribosyl cyclase (in words)” value in assay [5] is listed as “dose-dependent inhibition”. The “Inhibition of NADase activity, cell surface (in words)” value in assay [6] is on record as “inhibited with a similar pharmacology”. Moreover, the “Second, sustained phase of Ca2+ signaling (in words)” value in assay [7] is “significantly reduced”. Further, the “Proliferation of Jurkat T cells (in words)” value with human Jurkat T cells is “dose-dependently inhibits”.

In the case of `NC(=O)c1ccc[n+](C2OC(COP(=O)(O)OP(=O)(O)OCC3OC(n4cnc5c(=O)[nH]cnc54)C(O)C3O)C(O)C2O)c1` (stereo not drawn) [NHD, nicotinamide hypoxanthine dinucleotide], the “Inhibition of intracellular membrane bound P10 ADP-ribosyl cyclase (in words)” value in assay [1] was “inhibit”. For the same compound, the “Enzyme Activity (% of control), Cyclase activity” value in [1] (inhibitor 10 μM) was 63.6 % of control; in assay [1] (inhibitor 100 μM), 11.26 % of control; in [3] (inhibitor 10 μM) it was 46.0 % of control; in assay [3] (inhibitor 100 μM), 10.6 % of control. Further, the “Inhibition of NADase activity in the P10 fraction (in words)” value in assay [2] is reported as “inhibit”. Besides, the “Enzyme Activity (% of control), NAD glycohydrolase activity” value in assay [2] (inhibitor 10 μM) is reported as 59.0 % of control; in assay [2] (inhibitor 100 μM), 0 % of control; in assay [4] (inhibitor 10 μM), 37.3 % of control; in assay [4] (inhibitor 100 μM), 13.5 % of control.

In the case of `NC(=O)c1ccc[n+]([C@@H]2O[C@H](COP(=O)([O-])OP(=O)(O)OC[C@H]3O[C@@H](n4ccc5c(=O)[nH]cnc54)[C@H](O)[C@@H]3O)[C@@H](O)[C@H]2O)c1` [7-deaza-NHD, 7-deaza-nicotinamide hypoxanthine dinucleotide], the “Inhibition of intracellular membrane bound P10 ADP-ribosyl cyclase (in words)” value in [1] is listed as “inhibit”. The “Enzyme Activity (% of control), Cyclase activity” value in assay [1] (inhibitor 10 μM) is given as 97.9 % of control; in assay [1] (inhibitor 100 μM), 82.1 % of control; in assay [3] (inhibitor 10 μM), 94.0 % of control; in assay [3] (inhibitor 100 μM) it was 69.3 % of control. Also, the “Inhibition of NADase activity in the P10 fraction (in words)” value in assay [2] is listed as “inhibit”. Further, the “Enzyme Activity (% of control), NAD glycohydrolase activity” value is 97.5 % of control in [2] (inhibitor 10 μM), 83.3 % of control in assay [2] (inhibitor 100 μM), 94 % of control in assay [4] (inhibitor 10 μM) and 80.5 % of control in assay [4] (inhibitor 100 μM).

Regarding `NC(=O)c1ccc[n+]([C@@H]2O[C@H](COP(=O)([O-])O)[C@@H](O)[C@H]2O)c1` [β-NMN, β-nicotinamide mononucleotide, reference compound], the “Enzyme Activity (% of control), Cyclase activity” value in [1] (inhibitor 10 μM) is listed as 112.3 % of control; in assay [1] (inhibitor 100 μM), 93.4 % of control; in assay [1] (inhibitor 1000 μM), 56.9 % of control; in [3] (inhibitor 10 μM), 80.5 % of control; in [3] (inhibitor 100 μM) it was 65.4 % of control; in [3] (inhibitor 1000 μM) it was 36.5 % of control. For the same compound, the “Enzyme Activity (% of control), NAD glycohydrolase activity” value is listed as 115.0 % of control in assay [2] (inhibitor 10 μM); 91.9 % of control in assay [2] (inhibitor 100 μM); 48.8 % of control in assay [2] (inhibitor 1000 μM); 81.3 % of control in assay [4] (inhibitor 10 μM); 59.4 % of control in [4] (inhibitor 100 μM); 26.9 % of control in assay [4] (inhibitor 1000 μM). In the assay with NADase, the “Published as inhibitor of NADase” value was “published as inhibitors of NADase”.

With `NC(=O)c1cccnc1` [Nicotinamide, nicotinamide, reference compound], the “Enzyme Activity (% of control), Cyclase activity” value is listed as 94.0 % of control in assay [1] (inhibitor 10 μM); 43.3 % of control in assay [1] (inhibitor 100 μM); 14.9 % of control in assay [1] (inhibitor 1000 μM); 99.2 % of control in assay [3] (inhibitor 10 μM); 38.2 % of control in assay [3] (inhibitor 100 μM); 10.6 % of control in assay [3] (inhibitor 1000 μM). Moreover, the “Enzyme Activity (% of control), NAD glycohydrolase activity” value in [2] (inhibitor 10 μM) is reported as 94.2 % of control; in assay [2] (inhibitor 100 μM), 42.6 % of control; in [2] (inhibitor 1000 μM) it was 12.4 % of control; in assay [4] (inhibitor 10 μM) it was 95.2 % of control; in [4] (inhibitor 100 μM), 29.6 % of control; in assay [4] (inhibitor 1000 μM), 8.2 % of control. The “Published as inhibitor of NADase” value in the assay with NADase is “published as inhibitors of NADase”.

(Values after patent US20040214789A1, “Therapeutics” (priority 2001, published 2004).)
